Legend:
[1] = molecular target: T1, N-formyl peptide receptor 2 (Homo sapiens) (UniProt P25090); assay: Agonist activity at FPR2 in human PMN assessed as stimulation of Ca2+ influx measured every 5 secs for 240 secs by FLIPR assay relative to fMLF in presence of probenecid; assay type: functional
T1 sequence (whole entry): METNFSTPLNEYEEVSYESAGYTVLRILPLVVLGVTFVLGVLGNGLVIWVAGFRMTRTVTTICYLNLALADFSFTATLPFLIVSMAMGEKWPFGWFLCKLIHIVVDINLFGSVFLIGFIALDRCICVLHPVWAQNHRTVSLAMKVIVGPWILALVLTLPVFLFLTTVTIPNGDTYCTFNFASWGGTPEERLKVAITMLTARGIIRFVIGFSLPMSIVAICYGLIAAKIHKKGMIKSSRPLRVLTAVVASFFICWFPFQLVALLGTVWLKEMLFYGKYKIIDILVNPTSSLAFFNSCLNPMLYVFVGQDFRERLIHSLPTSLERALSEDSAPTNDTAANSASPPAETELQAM

[2] = molecular target: T2, fMet-Leu-Phe receptor (Homo sapiens, UniProt P21462); assay: Agonist activity at human FPR1 transfected in human HL60 cells assessed as stimulation of Ca2+ influx measured every 5 secs for 240 secs by FLIPR assay; assay type: functional, cell-based, HL-60
T2 sequence (P21462 whole entry): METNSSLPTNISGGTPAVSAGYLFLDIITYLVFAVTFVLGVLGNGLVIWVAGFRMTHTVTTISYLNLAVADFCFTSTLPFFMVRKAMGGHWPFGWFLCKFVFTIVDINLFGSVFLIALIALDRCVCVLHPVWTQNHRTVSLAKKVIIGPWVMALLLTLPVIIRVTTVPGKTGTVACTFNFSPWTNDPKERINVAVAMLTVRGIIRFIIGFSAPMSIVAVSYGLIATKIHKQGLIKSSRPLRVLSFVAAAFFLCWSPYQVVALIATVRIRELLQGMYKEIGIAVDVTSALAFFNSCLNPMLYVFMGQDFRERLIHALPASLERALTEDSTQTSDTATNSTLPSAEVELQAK

[3] = molecular target: T3, N-formyl peptide receptor 2 (Homo sapiens, UniProt P25090); assay: Agonist activity at human FPR2 transfected in human HL60 cells assessed as stimulation of Ca2+ influx measured every 5 secs for 240 secs by FLIPR assay; assay type: functional, cell-based, HL-60
T3 sequence (P25090 whole entry): T1 sequence (whole entry)

[4] = molecular target: T3, N-formyl peptide receptor 2; assay: Agonist activity at FPR2 in human PMN assessed as stimulation of Ca2+ influx measured every 5 secs for 240 secs by FLIPR assay in presence of probenecid; assay type: functional
[5] = molecular target: T1, N-formyl peptide receptor 2 (Homo sapiens); assay: Agonist activity at human FPR2 transfected in human HL60 cells assessed as stimulation of Ca2+ influx measured every 5 secs for 240 secs by FLIPR assay relative to WKYMVm; assay type: functional, cell-based; conditions: HL-60
[6] = molecular target: T4, Formyl peptide receptor-related sequence 1 (Mus musculus) (UniProt O08790); assay: Agonist activity at FPR2 in BALB/c mouse assessed as stimulation of Ca2+ influx measured every 5 secs for 240 secs by FLIPR assay relative to fMLF; assay type: functional
T4 sequence (whole entry): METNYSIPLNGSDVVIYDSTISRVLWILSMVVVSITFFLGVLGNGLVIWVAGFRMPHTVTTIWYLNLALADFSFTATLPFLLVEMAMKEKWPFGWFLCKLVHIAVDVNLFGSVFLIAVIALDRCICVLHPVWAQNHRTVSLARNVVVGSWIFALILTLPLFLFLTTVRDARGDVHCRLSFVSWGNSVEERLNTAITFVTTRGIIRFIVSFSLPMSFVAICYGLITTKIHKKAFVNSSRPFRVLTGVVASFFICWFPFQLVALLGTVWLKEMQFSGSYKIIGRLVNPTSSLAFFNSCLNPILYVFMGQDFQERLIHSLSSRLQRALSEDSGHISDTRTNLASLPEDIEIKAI

[7] = molecular target: T3, N-formyl peptide receptor 2; assay: Agonist activity at FPR2 in human PMN assessed as stimulation of Ca2+ influx measured every 5 secs for 240 secs by FLIPR assay in absence of probenecid; assay type: functional
[8] = system: Liver microsome; conditions: rat, microsomes, 1 µM
[9] = system: Liver microsome; conditions: rat, microsomes, 1 µM; remark: listed apart in the source
Description: Half life in rat liver microsomes at 1 uM preincubated for 10 mins followed by addition of NADPH regenerating system by LC-MS analysis

[10] = molecular target: T5, fMet-Leu-Phe receptor (Homo sapiens) (UniProt P21462); assay: Agonist activity at human FPR1 transfected in human HL60 cells assessed as stimulation of Ca2+ influx measured every 5 secs for 240 secs by FLIPR assay relative to fMLF; assay type: functional, cell-based; conditions: HL-60
T5 sequence (whole entry): T2 sequence (P21462 whole entry)

[11] = molecular target: T1, N-formyl peptide receptor 2 (Homo sapiens); assay: Agonist activity at FPR2 in human PMN assessed as stimulation of Ca2+ influx measured every 5 secs for 240 secs by FLIPR assay relative to fMLF in absence of probenecid; assay type: functional

COc1ccc(NC(=O)N[C@H](Cc2c[nH]c3ccccc23)C(=O)NCC2(c3ccccc3)CCCCC2)cc1
Efficacy [1]: 40%
EC50 ([2]; hl-60): Not Active
EC50 ([3]; read-out: EC50): 260 nM
EC50 ([4]; read-out: EC50): 970 nM
Efficacy [5]: 65%
Efficacy [6]: 35%
EC50 [7]: Not Active

COc1ccc(NC(=O)N[C@H](Cc2c[nH]c3ccccc23)C(=O)NCC2(c3cccnc3)CCCCC2)cc1
EC50 ([2]; hl-60): Not Active
EC50 ([3]; hl-60): Not Active
EC50 [4]: Not Active
Efficacy [6]: 80%
EC50 [7]: Not Active

COc1ccc(NC(=O)N[C@@H](Cc2c[nH]c3ccccc23)C(=O)NCC2(c3ccc(OC)cn3)CCCCC2)cc1
Efficacy [1]: 105%
CLH [8]: 1162.4 µL/min/mg
EC50 ([2]; read-out: EC50): 430 nM
Efficacy [5]: 120%
Efficacy [6]: 110%
t1/2 [9]: 1.1 min
Efficacy [10]: 130%

COc1ccc(C2(CNC(=O)[C@](C)(Cc3c[nH]c4ccccc34)NC(=O)Nc3ccc([N+](=O)[O-])cc3)CCCCC2)nc1
CLH [8]: 314.1 µL/min/mg
t1/2 [9]: 4.4 min

O=C(O)Cc1ccccc1Nc1c(Cl)cccc1Cl [DICLOFENAC]
CLH [8]: 159.8 µL/min/mg
t1/2 [9]: 8.7 min

COc1ccc(NC(=O)N[C@@H](Cc2c[nH]c3ccccc23)C(=O)NCC2(c3ccccc3)CCCCC2)cc1
EC50 ([2]; hl-60): Not Active
EC50 ([3]; hl-60): Not Active
EC50 [4]: Not Active
Efficacy [6]: 60%
EC50 [7]: Not Active

COc1ccc(NC(=O)N[C@@H](Cc2c[nH]c3ccccc23)C(=O)NCC2(c3ccnc(F)c3)CCCCC2)cc1
Efficacy [1]: 130%
EC50 ([2]; hl-60): Not Active
EC50 ([3]; read-out: EC50): 1600 nM
EC50 ([4]; read-out: EC50): 660 nM
Efficacy [5]: 115%
Efficacy [6]: 50%
EC50 ([7]; read-out: EC50): 12600 nM
Efficacy [11]: 55%

COc1ccc(NC(=O)N[C@H](Cc2c[nH]c3ccccc23)C(=O)NCC2(c3ccnc(F)c3)CCCCC2)cc1
EC50 ([2]; hl-60): Not Active
EC50 ([3]; hl-60): Not Active
EC50 [4]: Not Active
Efficacy [6]: 65%
EC50 [7]: Not Active

COc1ccc(NC(=O)N[C@H](Cc2c[nH]c3ccccc23)C(=O)NCC2(c3ccccn3)CCCCC2)cc1
Efficacy [1]: 115%
CLH [8]: 2476 µL/min/mg
EC50 ([2]; hl-60): Not Active
EC50 ([3]; read-out: EC50): 310 nM
EC50 ([4]; read-out: EC50): 490 nM
Efficacy [5]: 90%
Efficacy [6]: 55%
EC50 ([7]; read-out: EC50): 620 nM
t1/2 [9]: 0.6 min
Efficacy [11]: 40%

COc1ccc(NC(=O)N[C@H](Cc2c[nH]c3ccccc23)C(=O)NCC2(c3ccc(F)cc3)CCCCC2)cc1
EC50 ([2]; hl-60): Not Active
EC50 ([3]; hl-60): Not Active
EC50 [4]: Not Active
Efficacy [6]: 25%
EC50 [7]: Not Active

COc1ccc(NC(=O)N[C@H](Cc2c[nH]c3ccccc23)C(=O)NCC2(c3ccc(OC)cn3)CCCCC2)cc1
Efficacy [1]: 95%
CLH [8]: 1290.6 µL/min/mg
EC50 ([2]; hl-60): Not Active
Efficacy [5]: 100%
Efficacy [6]: 30%
t1/2 [9]: 1.2 min
Efficacy [11]: 40%

COc1ccc(NC(=O)N[C@@H](Cc2c[nH]c3ccccc23)C(=O)NCC2(c3cccnc3)CCCCC2)cc1
Efficacy [1]: 105%
EC50 ([2]; hl-60): Not Active
EC50 ([3]; read-out: EC50): 730 nM
EC50 ([4]; read-out: EC50): 270 nM
Efficacy [5]: 75%
Efficacy [6]: 75%
EC50 ([7]; read-out: EC50): 1800 nM
Efficacy [11]: 30%

COc1ccc(NC(=O)N[C@@H](Cc2c[nH]c3ccccc23)C(=O)NCC2(c3ccc(F)cc3)CCCCC2)cc1
Efficacy [1]: 55%
EC50 ([2]; hl-60): Not Active
EC50 ([3]; read-out: EC50): 860 nM
EC50 ([4]; read-out: EC50): 1100 nM
Efficacy [5]: 40%
Efficacy [6]: 25%
EC50 [7]: Not Active

COc1ccc(NC(=O)N[C@@H](Cc2c[nH]c3ccccc23)C(=O)NCC2(c3ccccn3)CCCCC2)cc1
Efficacy [1]: 120%
CLH [8]: 2173.4 µL/min/mg
EC50 ([2]; read-out: EC50): 950 nM
EC50 ([3]; read-out: EC50): 430 nM
EC50 ([4]; read-out: EC50): 450 nM
Efficacy [5]: 135%
Efficacy [6]: 80%
EC50 ([7]; read-out: EC50): 1800 nM
Efficacy [11]: 85%
Efficacy [10]: 115%
